Key:
[1] = molecular target: T1, human recombinant D3 receptor (Homo sapiens, UniProt P35462); test: Dopamine D3 receptor binding test; conditions: [3H]methyl-spiperone 0.3 nM, human recombinant D3 receptor expressed in CHO cells; read-out: Affinity of the compound for each receptor (Ki value, nM) D3
T1 construct: expressed in transfected cells; host or cells: CHO
Description: Dopamine D3 Receptor Binding Test
[^3H]methyl-spiperone (0.3 nM) was used as the ligand, and (+)-butaclamol (10 μM) was used to determine the non-specific binding, and the binding assay was performed on human recombinant D3 receptor (expressed in CHO cells).

[2] = molecular target: T2, 5-HT2A receptor (Homo sapiens, UniProt P28223); test: 5-HT2A receptor binding test; conditions: [3H]-Ketanserin, 5-HT2A receptor expressed in HEK293 cells; read-out: Affinity of the compound for each receptor (Ki value, nM) 5-HT2A
T2 construct: expressed in transfected cells; host or cells: HEK293
T2 sequence (P28223 whole entry): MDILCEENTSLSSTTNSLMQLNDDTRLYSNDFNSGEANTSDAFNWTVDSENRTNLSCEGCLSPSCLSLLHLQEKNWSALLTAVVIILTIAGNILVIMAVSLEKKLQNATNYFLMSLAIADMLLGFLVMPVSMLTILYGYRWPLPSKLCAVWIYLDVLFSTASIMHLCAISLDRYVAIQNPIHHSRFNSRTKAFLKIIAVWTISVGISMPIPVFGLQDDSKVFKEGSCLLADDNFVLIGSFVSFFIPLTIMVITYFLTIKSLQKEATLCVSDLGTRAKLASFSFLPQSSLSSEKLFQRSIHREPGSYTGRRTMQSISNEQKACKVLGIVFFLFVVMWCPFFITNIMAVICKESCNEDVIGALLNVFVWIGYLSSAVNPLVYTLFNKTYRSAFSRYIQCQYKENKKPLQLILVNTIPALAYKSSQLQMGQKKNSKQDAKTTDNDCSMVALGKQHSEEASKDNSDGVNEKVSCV
Text: 5-HT2A Receptor Binding Test
Beckman LS-6500 multifunctional liquid scintillation counter.
Tris-HCl reaction buffer (pH 7.7) was used to resuspend in the experiment.

[3] = molecular target: T3, H1 receptor (Homo sapiens, UniProt P35367); test: H1 receptor binding test; conditions: 1 nM [3H]pyrilamine, HEK-293 cell membrane homogenate; read-out: Affinity of the compound for H1 receptor (Ki value, nM) H1
T3 construct: expressed in transfected cells; host or cells: HEK-293
T3 sequence (P35367 whole entry): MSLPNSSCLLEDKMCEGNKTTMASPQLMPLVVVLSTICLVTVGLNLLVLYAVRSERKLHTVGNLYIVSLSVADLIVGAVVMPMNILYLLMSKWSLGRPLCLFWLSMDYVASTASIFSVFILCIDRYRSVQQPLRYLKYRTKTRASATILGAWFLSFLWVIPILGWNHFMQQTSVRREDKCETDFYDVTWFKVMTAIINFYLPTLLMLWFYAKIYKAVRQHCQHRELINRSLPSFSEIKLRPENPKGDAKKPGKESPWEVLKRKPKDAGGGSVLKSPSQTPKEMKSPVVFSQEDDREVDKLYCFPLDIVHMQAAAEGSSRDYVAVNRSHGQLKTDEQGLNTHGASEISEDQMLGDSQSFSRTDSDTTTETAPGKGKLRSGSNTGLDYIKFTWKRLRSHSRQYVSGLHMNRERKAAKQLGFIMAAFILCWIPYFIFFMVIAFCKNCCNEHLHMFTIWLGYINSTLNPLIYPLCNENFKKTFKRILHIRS
Description: Non-specific binding was determined in the presence of 1 μM pyrilamine.

[4] = molecular target: D2 receptor (Homo sapiens, UniProt P14416); test: Dopamine D2 receptor binding test
Sequence of D2 receptor (P14416 whole entry): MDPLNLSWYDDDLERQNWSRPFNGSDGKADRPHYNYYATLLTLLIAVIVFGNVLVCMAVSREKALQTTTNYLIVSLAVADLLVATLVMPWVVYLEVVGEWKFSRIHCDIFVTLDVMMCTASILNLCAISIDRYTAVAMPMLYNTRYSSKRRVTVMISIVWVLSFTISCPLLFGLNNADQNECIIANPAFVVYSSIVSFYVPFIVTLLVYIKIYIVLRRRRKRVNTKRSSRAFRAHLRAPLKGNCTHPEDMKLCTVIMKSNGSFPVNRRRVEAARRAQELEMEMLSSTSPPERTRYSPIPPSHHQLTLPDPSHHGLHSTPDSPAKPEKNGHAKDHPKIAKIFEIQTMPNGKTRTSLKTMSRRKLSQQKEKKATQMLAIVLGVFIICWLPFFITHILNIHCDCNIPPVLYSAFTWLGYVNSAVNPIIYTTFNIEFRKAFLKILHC
Description: Dopamine D2 Receptor Binding Test
In this experiment, HEK293 cells were transfected with plasmid vector containing D2 receptor protein gene, and calcium phosphate transfection method was used and after transfection, the cells were cultured in a culture solution containing G418, and the cell monoclonal and radioligand binding experiments were selected, and finally a stable cell line which could stably express D2 receptor protein was obtained.
HeK-293 cells were infected with recombinant viruses containing the above various genes respectively, and after 48-72 hours, the receptor proteins were expressed in large quantities on the membrane, and the cells were centrifuged at 1000 rpm for 5 min and then the culture solution was discarded, and the cells were collected, and stored in a −20° C. refrigerator for later use. Tris-HCl reaction buffer (pH=7.5) was used to resuspend in the experiment.
On the Millipore cell sample collector, the mixture was quickly filtrated under reduced pressure through GF/C glass fiber filter paper, and eluted with 3 mL of eluent (50 mMTris-HCl, pH 7.5) for 3 times, then dried under microwave for 5 to 6 min. The filter paper was moved into a 0.5 mL centrifuge tube, and 500 μL of lipid-soluble scintillation solution was added. The mixture was kept in the dark for more than 30 min, and the radioactivity intensity was determined by counting. […] Two replicate tubes were made for each experiment of compound, and two separate experiments were performed.
Two tubes were tested for each concentration and two independent tests were performed for each compound.

T1 sequence (P35462 whole entry): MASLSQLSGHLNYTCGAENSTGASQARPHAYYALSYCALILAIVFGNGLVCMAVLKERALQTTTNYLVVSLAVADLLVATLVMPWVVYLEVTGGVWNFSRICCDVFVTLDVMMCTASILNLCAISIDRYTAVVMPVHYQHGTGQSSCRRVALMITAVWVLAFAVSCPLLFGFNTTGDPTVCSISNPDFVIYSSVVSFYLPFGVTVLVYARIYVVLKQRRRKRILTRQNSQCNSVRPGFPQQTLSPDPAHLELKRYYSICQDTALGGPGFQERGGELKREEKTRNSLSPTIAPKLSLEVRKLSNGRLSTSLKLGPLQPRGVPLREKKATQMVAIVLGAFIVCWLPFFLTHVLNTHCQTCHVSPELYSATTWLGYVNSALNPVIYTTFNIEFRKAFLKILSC

Structure (SMILES) | Ki [1] [nM] | Ki [2] [nM] | Ki [3] [nM] | Ki [4] [nM]
CNC(=O)N[C@H]1CC[C@H](CCN2CCN(c3cc(-c4ccc(F)cc4)cc(N4CCOCC4)n3)CC2)CC1 [II-4, 1-(trans-4-(2-(4-(4-(4-fluorophenyl)-6-morpholinopyridin-2-yl)piperazin-1-yl)ethyl)cyclohexyl)-3-methylurea] | 0.3 | 0.9 | 540 | 2.8
CCC(=O)N[C@H]1CC[C@H](CCN2CCN(c3cc(-c4cccnc4)cc(N4CCOCC4)n3)CC2)CC1 [IV-1] | 0.05 | 2.7 | > 1000 | 2.5
CC(C)N(C(=O)N[C@H]1CC[C@H](CCN2CCN(c3cc(-c4cccnc4)cc(N4CCOCC4)n3)CC2)CC1)C(C)C [IV-4] | 0.08 | 8.7 | 670 | 1.7
CN(C)C(=O)N[C@H]1CC[C@H](CCN2CCN(c3cc(-c4cccs4)cc(N4CCOCC4)n3)CC2)CC1 [VI-4, 1,1-dimethyl-3-(trans-4-(2-(4-(6-morpholino-4-(thiophen-2-yl)pyridin-2-yl)piperazin-1-yl)ethyl)cyclohexyl)urea] | 0.1 | 0.9 | 590 | 2
COCC(=O)N[C@H]1CC[C@H](CCN2CCN(c3cc(-c4ccco4)cc(N4CCOCC4)n3)CC2)CC1 [Compound V-2, N-(trans-4-(2-(4-(4-(furan-2-yl)-6-morpholinopyridin-2-yl)piperazin-1-yl)ethyl)cyclohexyl)-2-methoxyacetamide] | – | 8.8 | 740 | 15.2
O=C(N[C@H]1CC[C@H](CCN2CCN(c3cc(-c4ccc(F)cc4)cc(N4CCOCC4)n3)CC2)CC1)c1ccccc1 [II-1, N-(trans-4-(2-(4-(4-(4-fluorophenyl)-6-morpholinopyridin-2-yl)piperazin-1-yl)ethyl)cyclohexyl)benzamide] | 0.2 | 2.3 | 670 | 1.7
CC(=O)N[C@H]1CC[C@H](CCN2CCN(c3cc(-c4ccco4)cc(N4CCOCC4)n3)CC2)CC1 [Compound V-1, N-(trans-4-(2-(4-(4-(furan-2-yl)-6-morpholinopyridin-2-yl)piperazin-1-yl)ethyl)cyclohexyl)acetamide] | 0.7 | 1.6 | 530 | 8.1
O=C(N[C@H]1CC[C@H](CCN2CCN(c3cc(-c4ccc(F)cc4)cc(N4CCOCC4)n3)CC2)CC1)c1ccco1 [II-3, N-(trans-4-(2-(4-(4-(4-fluorophenyl)-6-morpholinopyridin-2-yl)piperazin-1-yl)ethyl)cyclohexyl)furan-2-carboxamide] | 0.09 | 1.2 | 980 | 1.4
CCCC(=O)N[C@H]1CC[C@H](CCN2CCN(c3cc(-c4ccccc4)cc(N4CCOCC4)n3)CC2)CC1 [Compound I-2, N-(trans-4-(2-(4-(6-morpholino-4-phenylpyridin-2-yl)piperazin-1-yl)ethyl)cyclohexyl)butyramide] | 0.1 | 1.9 | 950 | 1.2
O=C(N[C@H]1CC[C@H](CCN2CCN(c3cc(-c4ccccc4)cc(N4CCOCC4)n3)CC2)CC1)C1CC1 [Compound I-4, N-((trans)-4-(2-(4-(6-morpholino-4-phenylpyridin-2-yl)piperazin-1-yl)ethyl)cyclohexyl)cyclopropanecarboxamide] | 0.05 | 3.9 | 550 | 2
O=C(N[C@H]1CC[C@H](CCN2CCN(c3cc(-c4cccs4)cc(N4CCOCC4)n3)CC2)CC1)C1CC1 [VI-2, N-(trans-4-(2-(4-(6-morpholino-4-(thiophen-2-yl)pyridin-2-yl)piperazin-1-yl)ethyl)cyclohexyl)cyclopropanecarboxamide] | 0.08 | 2.1 | > 1000 | 1.3
CN(C)C(=O)N[C@H]1CC[C@H](CCN2CCN(c3cc(-c4ccco4)cc(N4CCOCC4)n3)CC2)CC1 [Compound V-3, 3-(trans-4-(2-(4-(4-(furan-2-yl)-6-morpholinopyridin-2-yl)piperazin-1-yl)ethyl)cyclohexyl)-1,1-dimethylurea] | 0.07 | 5 | 800 | 7.1
CN(C)C(=O)N[C@H]1CC[C@H](CCN2CCN(c3cc(-c4ccc(F)cc4)cc(N4CCOCC4)n3)CC2)CC1 [II-5, 3-(trans-4-(2-(4-(4-(4-fluorophenyl)-6-morpholinopyridin-2-yl)piperazin-1-yl)ethyl)cyclohexyl)-1,1-dimethylurea] | – | – | 300 | –

Further lines, results first:

Ki [1] [nM] | Ki [2] [nM] | Ki [3] [nM] | Ki [4] [nM] | Structure (SMILES)
0.07 | 5.1 | > 1000 | 1.9 | COc1ccc(-c2cc(N3CCOCC3)nc(N3CCN(CC[C@H]4CC[C@H](NC(=O)N5CCOCC5)CC4)CC3)c2)cc1 [III-2, N-(trans-4-(2-(4-(4-(4-methoxyphenyl)-6-morpholinopyridin-2-yl)piperazin-1-yl)ethyl)cyclohexyl)morpholine-4-carboxamide]
0.3 | 7.9 | > 1000 | 4 | O=C(N[C@H]1CC[C@H](CCN2CCN(c3cc(-c4ccc[nH]4)cc(N4CCOCC4)n3)CC2)CC1)N1CCCCC1 [VII-5, N-(trans-4-(2-(4-(6-morpholino-4-(1H-pyrrol-2-yl)pyridin-2-yl)piperazin-1-yl)ethyl)cyclohexyl)piperidine-1-carboxamide]
0.1 | 0.7 | 600 | 2.6 | O=C(N[C@H]1CC[C@H](CCN2CCN(c3cc(-c4ccc[nH]4)cc(N4CCOCC4)n3)CC2)CC1)c1ccco1 [VII-2, N-(trans-4-(2-(4-(6-morpholino-4-(1H-pyrrol-2-yl)pyridin-2-yl)piperazin-1-yl)ethyl)cyclohexyl)furan-2-carboxamide]
0.28 | 3.2 | 460 | 4.5 | CCC(=O)N[C@H]1CC[C@H](CCN2CCN(c3cc(-c4ccc[nH]4)cc(N4CCOCC4)n3)CC2)CC1 [VII-1, N-(trans-4-(2-(4-(6-morpholino-4-(1H-pyrrol-2-yl)pyridin-2-yl)piperazin-1-yl)ethyl)cyclohexyl)propionamide]
0.2 | 10.8 | > 1000 | 3.2 | COc1ccc(-c2cc(N3CCOCC3)nc(N3CCN(CC[C@H]4CC[C@H](NC(=O)N5CCCC5)CC4)CC3)c2)cc1 [III-1, N-(trans-4-(2-(4-(4-(4-methoxyphenyl)-6-morpholinopyridin-2-yl)piperazin-1-yl)ethyl)cyclohexyl)tetrahydropyrrole-1-carboxamide]
– | 6.6 | 980 | 11.8 | COc1ccc(-c2cc(N3CCOCC3)nc(N3CCN(CC[C@H]4CC[C@H](NC(=O)N5CCN(C)CC5)CC4)CC3)c2)cc1 [III-4, N-(trans-4-(2-(4-(4-(4-methoxyphenyl)-6-morpholinopyridin-2-yl)piperazin-1-yl)ethyl)cyclohexyl)-4-methylpiperazine-1-carboxamide]
– | 3.8 | 870 | 5.1 | O=C(N[C@H]1CC[C@H](CCN2CCN(c3cc(-c4ccc[nH]4)cc(N4CCOCC4)n3)CC2)CC1)C1CCCCC1 [VII-3, N-(trans-4-(2-(4-(6-morpholino-4-(1H-pyrrol-2-yl)pyridin-2-yl)piperazin-1-yl)ethyl)cyclohexyl)cyclohexanecarboxamide]

From patent publication US12410136B2, “Pyridinyl morpholine compound, preparation method therefor, and application thereof” (SHANGHAI ZHONGZE THERAPEUTICS, CO. LTD., priority 2020, dated 2025)
